Reference: EP0199840B1, “Use of a diamine for the preparation of a softener for erythrocytes” (Barnikol, Wolfgang, Prof. Dr.Dr., priority 1985, dated 1986)

System: Erythrozyten
Assay: Erythrocyte filtration test: specific filtration time (FZsp) of an 8% suspension of purified erythrocytes through 5 µm polycarbonate (Nuclepore) membrane filters
Type: cell-based, gesunden Probanden
Settings: for Wirkung auf FZsp compared with Ausführungsbeispiel 1 (result in words): carried out as in Ausführungsbeispiel 1 (0 to 100 mmol/I; 1,5 Stunden; pH=7,4; 22°C; there FZsp reduced to 30% at 50 mmol/I)
Text: Es wurde nun gefunden, daß es, um die Erythrozyten-weichmachende Wirkung einer Substanz mit Hilfe eines Filtrationstests festzustellen, unerlässlich ist, die Erythrozyten quantitativ von den andern Blutzellen abzutrennen, weil auch sehr geringe Zellverunreinigungen den Test übermä-βig stark stören Daher wurde ein Testverfahren einschließlich eines Reinigungsverfahrens mit Hilfe der Dichtezentrifugation in synthetischem Polysaccharid (Ficoll® 400, Deutsche Pharmazia, Freiburg, Bundesrepublik Deutschland) erarbeitet; als Literaturstelle sei hingewiesen auf: Barnikol et al., Funkt, Biol. Med. 1 (1982), 242-244.
Im Prinzip wird hierbei die sogenannte spezifische Filtrierzeit (FZsp) einer 8%igen Erythrozytensuspension an 5 um Polycarbonat (Nuclepore-^@) Membran-filtern bestimmt. Das Meßverfahren wurde insofern gegenüber der ursprünglichen Vorschrift modifiziert, als nunmehr lediglich die Anfangsgeschwindigkeit gemessen wird, also je nach Dauer variable Tropfenzahlen vermessen werden, sowie der Zeitbedarf für eine bestimmte Tropfenzahl, nämlich 10, bereichnet wurde.
Es gilt die Formel [formula] wobei: • t=Filtrierzeit für 10 Tropfen der Suspension • to=Filtrierzeit für 10 Tropfen des Suspensionsmittels • FZsp ist ein Maß für die Steifigkeit.
Erthrozyten von mehreren gesunden Probanden werden wie oben angegeben (Barnikol et al., 1982) präpariert und eine 8 Vol.-%ige Zellsuspension hergestellt unter Zugabe von Glukose (100 mg/dl). Den Suspensionen werden steigende Mengen von DMAEA von 0 bis 100 mmol/I zugesetzt. Die Proben werden 1,5 Stunden unter langsamen Schwenken belassen bei pH=7,4 und 22°C und danach FZsp gemessen: Bei 50 mmol/I wird FZsp auf 30% des Ausgangswertes verringert.

Row | Compound | Wirkung auf FZsp compared with Ausführungsbeispiel 1 (result in words) | further results
1 | CN(C)CCN [DMAEA, Dimethylaminoethylamin] |  | activity at 50000 µM (Homo sapiens, Erythrocyte, 1.5 h, pH 7.4, 50 mmol/I, 8 Vol.-%ige Zellsuspension with Glukose (100 mg/dl), 1,5 Stunden, pH=7,4, 22°C, read-out: FZsp (spezifische Filtrierzeit), % des Ausgangswertes): 30%
2 | CC(=O)CCCCn1c(=O)c2c(ncn2C)n(C)c1=O [Pentoxifyllin, 3,7-Dimethyl-1-(5-oxohexyl)-xanthin, reference compound] |  | Wirkung auf FZsp (result in words) (0,1 mmol/1 to 15 mmol/I, 22°C, pH=7,40, FZsp not significantly reduced): unwirksam
3 | CCN(CC)CCN(CC)CC [TEEDA, Tetraethylethylendiamin] | gleich Wirkung | 
4 | CN(C)CCN(C)C [TMEDA, Tetramethylethylendiamin] | gleiche Wirkung | 
